This is an account of results in patent US8129398B2 (priority 2008, dated 2012).

pIC50: −log10 of the molar value.

The target of the assay is T1, HIV-integrase (Human immunodeficiency virus type 1 group M subtype B, UniProt P12497).
T1 construct: Recombinant integrase (0.26 ng) was incubated with the beads
Description: HIV-Integrase Inhibition Activity (SPA bead integration assay with P33 labeled target DNA). To be noted: recombinant integrase, class symbols; read-out: in vitro activity. In kind it is biochemical. An outline of the steps: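 Strand integration read as bead-proximity CPM after P33 target DNA (0.1 fmol) and inhibitor were added to washed integrase–substrate DNA complexes on SPA beads. Enzyme bound 90 min at 37° C; EDTA (10 mM final) terminated reaction; IC50 graded A/B/C.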
With `O=C(NC12CCC(CCn3c1nc(C(=O)NCc1ccc(F)cc1)c(O)c3=O)C2)C(=O)N1CCCC1` (stereo not shown) [Example 200, 8,11-Methano-4H-pyrimido[1,2-a]azocine-2-carboxamide, 11-[[1,2-dioxo-2-(1-pyrrolidinyl)ethyl]amino]-N-[(4-fluorophenyl)methyl]-6,7,8,9,10,11-hexahydro-3-hydroxy-4-oxo], the pIC50 was greater than 8.00.

As to `CCN(CC)C(=O)C(=O)NC12CCC(CCn3c1nc(C(=O)NCc1ccc(F)cc1)c(O)c3=O)C2` (stereo not shown) [Example 201], the pIC50 is greater than 8.00.

Take `O=C(NC12CCC(CCn3c1nc(C(=O)NCc1ccc(F)cc1)c(O)c3=O)C2)C(=O)N1CC(F)(F)C1` (stereo not shown) [Example 202, 8,1,1-Methano-4H-pyrimido[1,2-a]azocine-2-carboxamide, 1′-[[2-(3,3-difluoro-1-azetidinyl)-1,2-dioxoethyl]amino]-N-[(4-fluorophenyl)methyl]-6,7,8,9,10,11-hexahydro-3-hydroxy-4-oxo-]: the pIC50 is greater than 8.00.

Consider `O=C(NC12CCC(CCn3c1nc(C(=O)NCc1ccc(F)cc1)c(O)c3=O)C2)C(=O)N1CCC(F)CC1` (stereo not shown) [Example 203, 8,1,1-Methano-4H-pyrimido[1,2-a]azocine-2-carboxamide, N-[(4-fluorophenyl)methyl]-11-[[2-(4-fluoro-1-piperidinyl)-1,2-dioxoethyl]amino]-6,7,8,9,10,11-hexahydro-3-hydroxy-4-oxo-], for which the pIC50 is greater than 8.00.

Consider `CCN(C)C(=O)C(=O)NC12CCC(CCn3c1nc(C(=O)NCc1ccc(F)cc1)c(O)c3=O)C2` (stereo not shown) [Example 204], for which the pIC50 is greater than 8.00.

Consider `COCCN(C)C(=O)C(=O)NC12CCC(CCn3c1nc(C(=O)NCc1ccc(F)cc1)c(O)c3=O)C2` (stereo not shown) [Example 205, Ethanediamide, N′-[2-[[[(4-fluorophenyl)methyl]amino]carbonyl]-7,8,9,10-tetrahydro-3-hydroxy-4-oxo-8,11-methano-4H-pyrimido[1,2-a]azocin-11(6H)-yl]-N-(2-methoxyethyl)-N-methyl-], for which the pIC50 was greater than 8.00.

As to `CC(C)N(C)C(=O)C(=O)NC12CCC(CCn3c1nc(C(=O)NCc1ccc(F)cc1)c(O)c3=O)C2` (stereo not shown) [Example 206, Ethanediamide, N′-[2-[[[(4-fluorophenyl)methyl]amino]carbonyl]-7,8,9,10-tetrahydro-3-hydroxy-4-oxo-8,11-methano-4H-pyrimido[1,2-a]azocin-11(6H)-yl]-N-methyl-N-(1-methylethyl)-], the pIC50 is greater than 8.00.

`O=C(NC12CCC(CCn3c1nc(C(=O)NCc1ccc(F)cc1)c(O)c3=O)C2)C(=O)N1CC[C@H](F)C1` (stereo partly drawn) [Example 207, 8,11-Methano-4H-pyrimido[1,2-a]azocine-2-carboxamide, N-[(4-fluorophenyl)methyl]-11-[[2-[(3S)-3-fluoro-1-pyrrolidinyl]-1,2-dioxoethyl]amino]-6,7,8,9,10,11-hexahydro-3-hydroxy-4-oxo-]: the pIC50 is greater than 8.00.

For `O=C(NC12CCC(CCn3c1nc(C(=O)NCc1ccc(F)cc1)c(O)c3=O)C2)C(=O)N1CC[C@@H](F)C1` (stereo partly drawn) [Example 208, 8,11-Methano-4H-pyrimido[1,2-a]azocine-2-carboxamide, N-[(4-fluorophenyl)methyl]-11-[[2-[(3R)-3-fluoro-1-pyrrolidinyl]-1,2-dioxoethyl]amino]-6,7,8,9,10,11-hexahydro-3-hydroxy-4-oxo-], the pIC50 was greater than 8.00.

For `CN(CCF)C(=O)C(=O)NC12CCC(CCn3c1nc(C(=O)NCc1ccc(F)cc1)c(O)c3=O)C2` (stereo not shown) [Example 209, Ethanediamide, N-(2-fluoroethyl)-N′-[2-[[[(4-fluorophenyl)methyl]amino]carbonyl-7,8,9,10-tetrahydro-3-hydroxy-4-oxo-8,11-methano-4H-pyrimido[1,2-a]azocin-1](6H)-yl]-N-methyl], the pIC50 is greater than 8.00.

As to `COC(=O)C(=O)NC12CCC(CCn3c1nc(C(=O)NCc1ccc(F)cc1)c(O)c3=O)C2` (stereo not shown) [Example 210, Acetic acid, [[2-[[[(4-fluorophenyl)methyl]amino]carbonyl]-7,8,9,10-tetrahydro-3-hydroxy-4-oxo-8,1′-methano-4H-pyrimido[1,2-a]azocin-11(6H)-yl]amino]oxo-, methyl ester], the pIC50 is greater than 8.00.

As for `CN(C)C(=O)C(=O)N(C)C12CCC(CCn3c1nc(C(=O)NCc1ccc(F)cc1)c(O)c3=O)C2` (stereo not shown) [Example 211, Ethanediamide, N-[2-[[[(4-fluorophenyl)methyl]amino]carbonyl]-7,8,9,10-tetrahydro-3-hydroxy-4-oxo-8,11-methano-4H-pyrimido[1,2-a]azocin-11(6H)-yl]-N,N′,N′-trimethyl-], the pIC50 was greater than 8.00.

`Cc1cc(CNC(=O)c2nc3n(c(=O)c2O)CCC2CCC3(NC(=O)C(=O)N(C)C)C2)ccc1F` (stereo not shown) [Example 212, Ethanediamide, N′-[2-[[[(4-fluoro-3-methylphenyl)methyl]amino]carbonyl]-7,8,9,10-tetrahydro-3-hydroxy-4-oxo-8,11-methano-4H-pyrimido[1,2-a]azocin-11(6H)-yl]-N,N-dimethyl-]: the pIC50 is greater than 8.00.

For the molecule `CN(C)C(=O)C(=O)NC12CCC(CCn3c1nc(C(=O)NCc1ccc(F)c(Cl)c1)c(O)c3=O)C2` (stereo not shown) [Example 213, Ethanediamide, N′-[2-[[[(3-chloro-4-fluorophenyl)methyl]amino]carbonyl]-7,8,9,10-tetrahydro-3-hydroxy-4-oxo-8,11-methano-4H-pyrimido[1,2-a]azocin-11(6H)-yl]-N,N-dimethyl-], the pIC50 was greater than 8.00.

For the molecule `CN(C)C(=O)C(=O)NC12CCC(CCn3c1nc(C(=O)NCc1ccc(F)c(F)c1)c(O)c3=O)C2` (stereo not shown) [Example 214, Ethanediamide, N′-[2-[[[(3,4-difluorophenyl)methyl]amino]carbonyl]-7,8,9,10-tetrahydro-3-hydroxy-4-oxo-8,11-methano-4H-pyrimido[1,2-a]azocin-11(6H)-yl]-N,N-dimethyl], the pIC50 was greater than 8.00.

In the case of `O=C(NC12CCC(CCn3c1nc(C(=O)NCc1ccc(F)c(Cl)c1)c(O)c3=O)C2)C(=O)N1CC[C@@H](F)C1` (stereo partly drawn) [Example 215, 8,11-Methano-4H-pyrimido[1,2-a]azocine-2-carboxamide, N-[(3-chloro-4-fluorophenyl)methyl]-11-[[2-[(3R)-3-fluoro-1-pyrrolidinyl]-1,2-dioxoethyl]amino]-6,7,8,9,10,11-hexahydro-3-hydroxy-4-oxo-], the pIC50 was greater than 8.00.

Take `Cc1cc(CNC(=O)c2nc3n(c(=O)c2O)CCC2CCC3(NC(=O)C(=O)N3CC[C@@H](F)C3)C2)ccc1F` (stereo partly drawn) [Example 216, 8,11-Methano-4H-pyrimido[1,2-a]azocine-2-carboxamide, N-[(4-fluoro-3-methylphenyl)methyl]-11-[[2-[(3R)-3-fluoro-1-pyrrolidinyl]-1,2-dioxoethyl]amino]-6,7,8,9,10,11-hexahydro-3-hydroxy-4-oxo-]: the pIC50 was greater than 8.00.

Consider `O=C(NC12COC(CCn3c1nc(C(=O)NCc1ccc(F)cc1)c(O)c3=O)C2)OCc1ccccc1` (stereo not shown) [Example 217, Benzyl (2-((4-fluorobenzyl)carbamoyl)-3-hydroxy-4-oxo-7,8-dihydro-4 H,6H-8,11-methanopyrimido[2,1-d][1,5]oxazocin-11(10H)-yl)carbamate], for which the pIC50 is greater than 8.00.

As for `CN(C)C(=O)C(=O)NC12COC(CCn3c1nc(C(=O)NCc1ccc(F)cc1)c(O)c3=O)C2` (stereo not shown) [Example 218, N′-(2-((4-Fluorobenzyl)carbamoyl)-3-hydroxy-4-oxo-7,8-dihydro-4 H,6H-8,11-methanopyrimido[2,1-d][1,5]oxazocin-11(10H)-yl)-N,N-dimethylethanediamide], the pIC50 is greater than 8.00.
